Experimental data: PubChem BioAssay (NCI)
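Exposure lasted 48 hours, with cells grown in 96-well plates and compounds tested at five concentrations. Definition used: TGI = concentration required for complete inhibition of growth.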

Columns and labels:
Assay in all cases: DTP human tumour cell line panel, 48 h
T-47D breast = test system: T-47D breast
A549 NSCLC = test system: A549 NSCLC
SK-MEL-2 melanoma = test system: SK-MEL-2 melanoma
UACC-257 melanoma = test system: UACC-257 melanoma
HCT-116 colon = test system: HCT-116 colon
OVCAR-3 ovarian = test system: OVCAR-3 ovarian
CAKI-1 renal = test system: CAKI-1 renal
SK-MEL-28 melanoma = test system: SK-MEL-28 melanoma
IGROV1 ovarian = test system: IGROV1 ovarian
NCI-H522 lung = test system: NCI-H522 lung

| SMILES | TGI (T-47D breast) | TGI (A549 NSCLC) | TGI (SK-MEL-2 melanoma) | TGI (UACC-257 melanoma) | TGI (HCT-116 colon) | TGI (OVCAR-3 ovarian) | TGI (CAKI-1 renal) | TGI (SK-MEL-28 melanoma) | TGI (IGROV1 ovarian) | TGI (NCI-H522 lung) |
| --- | --- | --- | --- | --- | --- | --- | --- | --- | --- | --- |
| CCN(CC(=O)O)CC(=O)O | > 100 µM | > 100 µM | > 100 µM | > 100 µM | > 100 µM | > 100 µM | > 100 µM | > 100 µM | > 100 µM | > 100 µM |
| CNc1ccc2c(c1)Cc1ccccc1-2 | > 100 µM | 56.2 µM | > 100 µM | > 100 µM | > 100 µM | 62.5 µM | 90.7 µM | > 100 µM | > 100 µM | 50.8 µM |
| CC1(C)[C@@H]2C[C@H]1c1cnc(-c3ccccn3)cc1[C@H]2C(O)[C@@H]1c2cc(-c3ccccn3)ncc2[C@H]2C[C@@H]1C2(C)C (stereo partly drawn) | 53.1 µM | 18.3 µM | 13 µM | 26 µM | 5.34 µM | 1.77 µM | 2.43 µM | 29.7 µM | 6.98 µM | 3.06 µM |
| COc1ccc(N2C(=O)C3c4[nH]c5ccccc5c4C4C(C)CCCC4C3C2=O)cc1 (stereo not drawn) | > 100 µM | > 100 µM | > 100 µM | > 100 µM | > 100 µM | > 100 µM | > 100 µM | > 100 µM | > 100 µM | > 56.3 µM |
| COc1cc(/C=C/C(=O)O)ccc1OS(=O)(=O)O | > 100 µM | > 100 µM | > 100 µM | > 100 µM | > 100 µM | > 100 µM | > 100 µM | > 100 µM | > 100 µM | > 100 µM |
| O=c1c(Cc2ccccc2)c(-c2ccccc2)[nH]n1C1=NCCN1 | > 100 µM | > 100 µM | > 100 µM | > 100 µM | 66.7 µM | > 100 µM | > 100 µM |  | > 100 µM | > 100 µM |
| COC1OC2COC(C)(C)OC2C2OC(C)(C)OC12 (stereo not drawn) | > 100 µM | > 100 µM | > 100 µM | > 100 µM | > 100 µM | > 100 µM | 33.1 µM | > 100 µM | > 100 µM | > 100 µM |
| O=S1(=O)c2ccccc2NC(=S)N1c1ccccc1 | > 100 µM | > 100 µM | > 100 µM | > 89.2 µM | > 100 µM | > 100 µM | > 100 µM | > 100 µM | > 100 µM | > 73.3 µM |
| N/C(CSCCSC/C(N)=N/O)=N\O | > 100 µM | > 100 µM |  |  | > 100 µM | > 100 µM | > 100 µM | > 100 µM | > 100 µM | > 100 µM |
| COc1cc2nc(-c3c(F)cccc3F)n(Cc3c(F)cccc3F)c2cc1Cc1c(F)cccc1F | > 100 µM | > 100 µM | > 82.2 µM | > 100 µM | > 100 µM | > 100 µM | > 100 µM | 1.4 µM |  | > 100 µM |
| COc1ccc(/C=N/Nc2nc3ccccc3c(=O)n2-c2ccccc2)c(OCc2ccccc2)c1 | > 100 µM | > 100 µM | > 100 µM | > 100 µM | > 100 µM | > 100 µM | > 100 µM | > 100 µM | > 100 µM | > 100 µM |
| COC(=O)[C@H]1C=C[C@H](OC2OC(COC(C)=O)C(OC(C)=O)C(OC(C)=O)C2OC(C)=O)n2c(=O)n(-c3ccccc3)c(=O)n21 (stereo partly drawn) | > 28.1 µM | 35.4 µM | 30.6 µM | 20.6 µM | > 30.5 µM | 11.3 µM | 2.4 µM | 8.63 µM | 18.4 µM | 0.504 µM |
| CCN(C(=O)N[C@H](C(=O)N[C@@H](C)C(=O)OC)C(C)C)c1ccccc1 | > 100 µM | > 100 µM | 78.3 µM | 41.8 µM | 68.6 µM | > 100 µM | > 100 µM | > 100 µM | > 100 µM | 49.5 µM |
| OCC1OC(O[C@H]2CN3[C@H](O)[C@@H](O)[C@H](O)[C@H]3C2O)C(O)C(O)C1O (stereo partly drawn) | > 100 µM | > 100 µM | > 100 µM | > 100 µM | > 100 µM | > 100 µM | > 100 µM | > 100 µM | > 100 µM | > 100 µM |
| CCOC(=O)c1[nH]c2nc(SC)nc(NC)c2c1N | > 100 µM | > 100 µM | > 100 µM | > 100 µM | > 100 µM | > 100 µM | > 100 µM | > 100 µM | > 100 µM | > 100 µM |
| c1ccc(-c2ccc(N=NN3CCCC3)cc2)cc1 | > 100 µM |  | > 100 µM | > 100 µM | > 100 µM | > 100 µM | > 100 µM |  | > 100 µM | > 100 µM |
| CC[P+](C#Cc1ccccc1)(c1ccccc1)c1ccccc1 | 6.88 µM | 14.8 µM | 4.3 µM | 4.11 µM | 5.86 µM | 4.55 µM | 32.8 µM | 4.68 µM | 11.9 µM | 3.32 µM |
| COc1cc2c(cc1O)CC[n+]1cc3c(OC)c(OC)ccc3cc1-2 | > 100 µM | > 100 µM | > 100 µM | > 100 µM | > 100 µM | > 100 µM | > 100 µM | > 100 µM | > 100 µM | > 100 µM |
| NS(=O)(=O)c1nnc(NSc2ccc([N+](=O)[O-])cc2)s1 | > 100 µM | > 100 µM | > 100 µM | > 100 µM | > 100 µM | > 100 µM | > 100 µM | > 100 µM |  | 44.3 µM |
| CC(C)(C)OC(=O)c1ccc(NCc2cc(O)ccc2O)cc1 | 2.57 µM | > 89.4 µM | 18.8 µM | 14.9 µM | 16.1 µM | 3.9 µM | 2.61 µM | 5.28 µM | 5.47 µM | 0.557 µM |
| COC(=O)C(CCSC)NC(=O)CSc1nnc(COc2ccc(Cl)cc2)n1-c1ccccc1 (stereo not drawn) | > 78.7 µM | > 70.8 µM | 30.6 µM | 31.2 µM | 30.7 µM | 5.37 µM | 35.9 µM | 33.8 µM | 31.1 µM | 18.1 µM |
| CC/C=C\C/C=C\C/C=C\CCCCCCCC(=O)OC(COC(=O)CCCCCCCCCCCCCCCCC)COC1OC(CO)C(O)C(O)C1O (stereo not drawn) | > 25 µM | > 25 µM | > 25 µM | > 25 µM | > 25 µM | > 25 µM | > 25 µM | > 25 µM | > 25 µM | > 25 µM |
